# pIC50: −log10 of the molar value.
# Legend:
# [1] = molecular target: Epidermal growth factor receptor (Homo sapiens, UniProt P00533); assay: Inhibition of wild type EGFR (unknown origin) autophosphorylation preincubated for 30 mins followed by ATP addition measured after 1 hr by kinase-glo luminescence assay
# [2] = molecular target: Epidermal growth factor receptor (Homo sapiens, UniProt P00533, L858R/T790M); format: protein assay
# [3] = Cytotoxicity against HEK293T assessed as reduction in cell viability by MTT assay; format: cell-based, HEK-293T; conditions: human, HEK293T cells
# NCI-H358 = assay: Antiproliferative activity against human NCI-H358 cells assessed as reduction in cell viability after 48 hrs by cck8 assay; format: functional, cell-based; conditions: NCI-H358, 48 h
# A549 = assay: Antiproliferative activity against human A549 cells assessed as reduction in cell viability after 48 hrs by cck8 assay; format: functional, cell-based; conditions: A549, 48 h
# Chain of Epidermal growth factor receptor (Homo sapiens, UniProt P00533, L858R/T790M) (P00533 25-1210 T790M/L858R limits assumed): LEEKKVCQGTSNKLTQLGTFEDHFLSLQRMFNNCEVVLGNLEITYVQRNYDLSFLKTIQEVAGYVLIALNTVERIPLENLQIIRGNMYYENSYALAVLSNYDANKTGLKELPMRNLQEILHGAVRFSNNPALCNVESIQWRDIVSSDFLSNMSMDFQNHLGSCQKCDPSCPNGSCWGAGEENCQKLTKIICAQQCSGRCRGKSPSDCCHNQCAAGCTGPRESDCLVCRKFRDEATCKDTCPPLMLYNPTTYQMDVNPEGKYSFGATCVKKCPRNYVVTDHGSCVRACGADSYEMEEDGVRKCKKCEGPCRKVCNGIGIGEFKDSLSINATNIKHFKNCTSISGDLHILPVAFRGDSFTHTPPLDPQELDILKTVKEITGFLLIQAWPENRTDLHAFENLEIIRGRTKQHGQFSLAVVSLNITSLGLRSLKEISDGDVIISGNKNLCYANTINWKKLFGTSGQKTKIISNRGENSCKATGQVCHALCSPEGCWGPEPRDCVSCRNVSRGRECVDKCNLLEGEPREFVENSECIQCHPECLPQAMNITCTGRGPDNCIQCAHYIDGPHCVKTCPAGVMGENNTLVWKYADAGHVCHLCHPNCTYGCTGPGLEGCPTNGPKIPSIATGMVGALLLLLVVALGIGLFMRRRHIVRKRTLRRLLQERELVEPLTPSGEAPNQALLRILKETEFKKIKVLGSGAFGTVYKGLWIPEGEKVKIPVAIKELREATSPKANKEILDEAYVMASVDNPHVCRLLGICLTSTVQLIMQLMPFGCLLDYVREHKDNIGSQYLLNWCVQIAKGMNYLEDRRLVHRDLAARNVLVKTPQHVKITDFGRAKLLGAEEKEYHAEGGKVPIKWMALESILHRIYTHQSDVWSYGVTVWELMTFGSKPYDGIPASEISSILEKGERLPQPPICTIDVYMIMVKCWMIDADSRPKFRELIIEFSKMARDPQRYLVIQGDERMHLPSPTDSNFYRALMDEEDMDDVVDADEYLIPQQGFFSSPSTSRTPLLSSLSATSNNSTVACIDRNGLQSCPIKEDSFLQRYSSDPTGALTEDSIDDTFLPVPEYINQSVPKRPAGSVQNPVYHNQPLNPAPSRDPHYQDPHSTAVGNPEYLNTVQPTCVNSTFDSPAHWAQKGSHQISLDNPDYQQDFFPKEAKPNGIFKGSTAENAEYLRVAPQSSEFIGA
# Chain of Epidermal growth factor receptor (Homo sapiens, UniProt P00533) (P00533 whole entry): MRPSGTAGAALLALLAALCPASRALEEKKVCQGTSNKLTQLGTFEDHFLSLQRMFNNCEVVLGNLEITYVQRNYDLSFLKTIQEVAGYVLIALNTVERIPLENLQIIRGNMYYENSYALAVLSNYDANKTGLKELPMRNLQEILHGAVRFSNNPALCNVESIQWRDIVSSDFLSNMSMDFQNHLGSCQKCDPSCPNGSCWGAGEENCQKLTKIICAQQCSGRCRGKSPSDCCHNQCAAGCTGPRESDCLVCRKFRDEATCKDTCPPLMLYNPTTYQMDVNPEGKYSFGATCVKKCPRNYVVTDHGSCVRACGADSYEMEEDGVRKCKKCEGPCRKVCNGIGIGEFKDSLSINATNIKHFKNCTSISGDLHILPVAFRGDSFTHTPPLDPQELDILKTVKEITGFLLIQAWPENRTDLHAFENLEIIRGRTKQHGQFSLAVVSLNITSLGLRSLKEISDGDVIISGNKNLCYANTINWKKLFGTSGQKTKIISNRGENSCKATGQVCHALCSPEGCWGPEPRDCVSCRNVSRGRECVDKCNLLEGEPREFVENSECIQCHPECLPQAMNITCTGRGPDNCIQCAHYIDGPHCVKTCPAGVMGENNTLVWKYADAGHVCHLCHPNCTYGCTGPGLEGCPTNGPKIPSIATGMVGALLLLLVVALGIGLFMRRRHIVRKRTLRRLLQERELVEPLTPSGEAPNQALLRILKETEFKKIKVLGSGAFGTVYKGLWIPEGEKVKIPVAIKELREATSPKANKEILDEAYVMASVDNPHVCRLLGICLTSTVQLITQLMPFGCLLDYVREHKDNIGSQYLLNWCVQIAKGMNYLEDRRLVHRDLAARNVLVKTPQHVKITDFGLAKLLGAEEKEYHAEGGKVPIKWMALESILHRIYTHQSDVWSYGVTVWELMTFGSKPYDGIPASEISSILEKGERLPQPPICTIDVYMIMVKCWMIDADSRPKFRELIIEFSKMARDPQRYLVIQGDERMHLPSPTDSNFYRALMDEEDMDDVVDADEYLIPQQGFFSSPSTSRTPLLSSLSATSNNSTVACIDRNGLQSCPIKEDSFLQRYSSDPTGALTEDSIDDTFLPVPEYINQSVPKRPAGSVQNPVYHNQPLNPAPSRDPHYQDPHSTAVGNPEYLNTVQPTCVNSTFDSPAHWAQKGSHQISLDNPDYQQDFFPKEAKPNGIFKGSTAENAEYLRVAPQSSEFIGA
SMILES,pIC50 [1],pIC50 [2],pIC50 (NCI-H358),pIC50 (A549),CC50 [3]
CCOC(C)Oc1cc2ncnc(Nc3ccc(OC)c([N+](=O)[O-])c3)c2c2c1OCCO2 (stereo not given),< 6.00,< 6.00,,,
C#Cc1cccc(Nc2ncnc3cc(OC4CCOCC4)c4c(c23)OCCO4)c1,7.24,< 6.00,,,
CCOC(C)Oc1cc2ncnc(Nc3ccc(F)c(C#N)c3)c2c2c1OCCO2 (stereo not given),6.45,< 6.00,,,
CCOC(C)Oc1cc2ncnc(Nc3ccc(C)c(C#N)c3)c2c2c1OCCO2 (stereo not given),< 6.00,< 6.00,,,
COCCOc1cc2ncnc(Nc3ccc(Cl)c([N+](=O)[O-])c3)c2c2c1OCCO2,7.44,< 6.00,,,
C#Cc1cccc(Nc2ncnc3cc(OCC4CCCO4)c4c(c23)OCCO4)c1 (stereo not given),7.56,6.92,,,40200 nM
CCOc1cc2ncnc(Nc3ccc(C)c(Cl)c3)c2c2c1OCCO2,8.17,7.47,4.76,4.93,
CC(C)Oc1cc2ncnc(Nc3ccc(F)c(C#N)c3)c2c2c1OCCO2,6.50,< 6.00,,,
COCCOc1cc2ncnc(Nc3ccc(OC)c([N+](=O)[O-])c3)c2c2c1OCCO2,< 6.00,< 6.00,,,
COCCOc1cc2ncnc(Nc3ccc(F)c(Cl)c3)c2c2c1OCCO2,7.88,7.98,5.23,4.86,
C#Cc1cccc(Nc2ncnc3cc(OCCOC)c(OCCOC)cc23)c1 [ERLOTINIB],,,5.41,5.13,28200 nM
Fc1ccc(Nc2ncnc3cc(OCCCN4CCOCC4)c4c(c23)OCCO4)cc1Cl,7.59,,,,
CC(C)Oc1cc2ncnc(Nc3ccc(F)c([N+](=O)[O-])c3)c2c2c1OCCO2,7.08,< 6.00,,,
C#Cc1cccc(Nc2ncnc3cc(OC4CCOC4)c4c(c23)OCCO4)c1 (stereo not given),7.78,6.49,,,
Fc1cccc(Nc2ncnc3cc(OCCCN4CCOCC4)c4c(c23)OCCO4)c1,7.08,,,,
C#Cc1cccc(Nc2ncnc3cc(OC(C)C)c4c(c23)OCCO4)c1,7.63,7.50,5.34,5.22,22100 nM
CCOc1cc2ncnc(Nc3ccc(C)cc3)c2c2c1OCCO2,8.44,6.91,,,27400 nM
CC(C)Oc1cc2ncnc(Nc3ccc(Cl)c([N+](=O)[O-])c3)c2c2c1OCCO2,6.99,5.88,,,
Brc1cccc(Nc2ncnc3cc(OCCCN4CCOCC4)c4c(c23)OCCO4)c1,7.73,,,,

# Continued, in another order:
pIC50 [1],pIC50 [2],pIC50 (NCI-H358),pIC50 (A549),SMILES,CC50 [3]
6.70,< 6.00,,,COCCOc1cc2ncnc(Nc3ccc(F)cc3)c2c2c1OCCO2,25900 nM
7.69,6.82,,,Fc1ccc(Nc2ncnc3cc(OC4CCOC4)c4c(c23)OCCO4)cc1Cl (stereo not given),
6.32,7.12,,,C#Cc1cccc(Nc2ncnc3cc(OC(C)COC)c4c(c23)OCCO4)c1 (stereo not given),
< 6.00,< 6.00,,,COc1ccc(Nc2ncnc3cc(OC(C)C)c4c(c23)OCCO4)cc1[N+](=O)[O-],
7.54,7.33,5.16,4.93,CC(C)Oc1cc2ncnc(Nc3ccc(F)c(Cl)c3)c2c2c1OCCO2,
7.62,< 6.00,,,Fc1ccc(Nc2ncnc3cc(OCC4CCCO4)c4c(c23)OCCO4)cc1Cl (stereo not given),
6.38,< 6.00,,,Cc1ccc(Nc2ncnc3cc(OC(C)C)c4c(c23)OCCO4)cc1C#N,
8.36,7.15,,,CCOc1cc2ncnc(Nc3cccc(OC)c3)c2c2c1OCCO2,25300 nM
7.13,< 6.00,,,COCCOc1cc2ncnc(Nc3ccc(C)c([N+](=O)[O-])c3)c2c2c1OCCO2,
7.01,,,,FC(F)(F)c1cccc(Nc2ncnc3cc(OCCCN4CCOCC4)c4c(c23)OCCO4)c1,
6.80,6.96,,,COCCOc1cc2ncnc(Nc3cccc(OC)c3)c2c2c1OCCO2,20800 nM
7.96,< 6.00,,,C#Cc1cccc(Nc2ncnc3cc(OC)c4c(c23)OCCO4)c1,11700 nM
8.70,8.16,4.64,4.79,CCOc1cc2ncnc(Nc3ccc(F)c(Cl)c3)c2c2c1OCCO2,37000 nM
7.68,8.09,5.13,5.00,C#Cc1cccc(Nc2ncnc3cc(OCCOC)c4c(c23)OCCO4)c1,22100 nM
6.73,< 6.00,,,Cc1ccc(Nc2ncnc3cc(OC(C)C)c4c(c23)OCCO4)cc1[N+](=O)[O-],
6.44,< 6.00,,,CCOC(C)Oc1cc2ncnc(Nc3ccc(C)c([N+](=O)[O-])c3)c2c2c1OCCO2 (stereo not given),
7.23,< 6.00,,,Fc1ccc(Nc2ncnc3cc(OC4CCOCC4)c4c(c23)OCCO4)cc1Cl,
6.41,< 6.00,,,COCCOc1cc2ncnc(Nc3ccc(F)c(C#N)c3)c2c2c1OCCO2,
7.65,6.00,,,COc1cc2ncnc(Nc3ccc(F)c(Cl)c3)c2c2c1OCCO2,
8.01,7.15,,,CCOc1cc2ncnc(Nc3cccc([N+](=O)[O-])c3)c2c2c1OCCO2,42000 nM
7.66,,,,Clc1cccc(Nc2ncnc3cc(OCCCN4CCOCC4)c4c(c23)OCCO4)c1,
8.04,7.67,5.05,4.98,C#Cc1cccc(Nc2ncnc3cc(OCC)c4c(c23)OCCO4)c1,28200 nM
6.63,6.57,,,CCOC(C)Oc1cc2ncnc(Nc3ccc(F)c([N+](=O)[O-])c3)c2c2c1OCCO2 (stereo not given),
